The values below come from the supplement of paper PMC10307832.

Experiment in all cases: relative viability (nuclei count vs DMSO), 5 days (fraction); higher = more cells survive
Compound in the assay “Decitabine + Dasatinib”: Nc1ncn([C@H]2C[C@H](O)[C@@H](CO)O2)c(=O)n1 [Decitabine] + Cc1nc(Nc2ncc(C(=O)Nc3c(C)cccc3Cl)s2)cc(N2CCN(CCO)CC2)n1 [Dasatinib] (partner 0.075 µM)
Summed up: (§1)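 Relative viability equals treated-well nuclei counts divided by vehicle-well nuclei counts. Counts came from 4× images of lung cancer cell lines grown in 1536-well plates for 5 days after pin-tool dosing on the day after seeding. Dosing used one drug alone or a fixed anchor-drug dose plus five library-drug doses (not always all listed) in √10 steps, and values are medians of duplicate plates.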

Compound in the assay “Cediranib + Pemetrexed”: COc1cc2c(Oc3ccc4[nH]c(C)cc4c3F)ncnc2cc1OCCCN1CCCC1 [Cediranib] + Nc1nc2[nH]cc(CCc3ccc(C(=O)N[C@@H](CCC(=O)O)C(=O)O)cc3)c2c(=O)[nH]1 [Pemetrexed] (partner 0.2 µM)
Put shortly:
as §1

Compound in the assay “Cediranib + Olaparib”: COc1cc2c(Oc3ccc4[nH]c(C)cc4c3F)ncnc2cc1OCCCN1CCCC1 [Cediranib] + O=C(c1cc(Cc2n[nH]c(=O)c3ccccc23)ccc1F)N1CCN(C(=O)C2CC2)CC1 [Olaparib] (partner 8 µM)
Summed up: as §1

Compound in the assay “Decitabine + Navitoclax”: Nc1ncn([C@H]2C[C@H](O)[C@@H](CO)O2)c(=O)n1 [Decitabine] + CC1(C)CCC(c2ccc(Cl)cc2)=C(CN2CCN(c3ccc(C(=O)NS(=O)(=O)c4ccc(N[C@H](CCN5CCOCC5)CSc5ccccc5)c(S(=O)(=O)C(F)(F)F)c4)cc3)CC2)C1 [Navitoclax] (partner 0.5 µM)
Summed up: as §1

For the cell line SW 900, the relative viability is 0.35 with Decitabine + Dasatinib (first compound 0.04 µM); 0.405 with Decitabine + Dasatinib (first compound 0.1265 µM); 0.387 in the assay with Decitabine + Dasatinib (first compound 0.4 µM); 0.292 with Decitabine + Dasatinib (first compound 1.265 µM); 0.163 in the assay with Decitabine + Dasatinib (first compound 4 µM); 0.52 with Cediranib + Pemetrexed (first compound 0.04 µM). Further, the relative viability with Cediranib + Pemetrexed (first compound 0.1265 µM) turned out to be 0.509; in the assay with Cediranib + Pemetrexed (first compound 0.4 µM), 0.463; with Cediranib + Pemetrexed (first compound 1.265 µM) it was 0.46; with Cediranib + Pemetrexed (first compound 4 µM) it was 0.537; in the assay with Cediranib + Olaparib (first compound 0.04 µM), 0.915; in the assay with Cediranib + Olaparib (first compound 0.1265 µM), 0.845. Also, the figures for the relative viability with Cediranib + Olaparib (first compound 0.4 µM), with Cediranib + Olaparib (first compound 1.265 µM) and in the assay with Cediranib + Olaparib (first compound 4 µM) were 0.794, 0.899 and 0.925, respectively.
For LCLC-103H, the relative viability with Decitabine + Dasatinib (first compound 0.04 µM) turned out to be 0.507; in the assay with Decitabine + Dasatinib (first compound 0.1265 µM), 0.57; with Decitabine + Dasatinib (first compound 0.4 µM), 0.457; in the assay with Decitabine + Dasatinib (first compound 1.265 µM), 0.337; in the assay with Decitabine + Dasatinib (first compound 4 µM), 0.374; in the assay with Cediranib + Pemetrexed (first compound 0.04 µM), 0.502. For the same cell line, the relative viability with Cediranib + Pemetrexed (first compound 0.1265 µM) came out at 0.477; in the assay with Cediranib + Pemetrexed (first compound 0.4 µM), 0.514; with Cediranib + Pemetrexed (first compound 1.265 µM), 0.427; in the assay with Cediranib + Pemetrexed (first compound 4 µM) it was 0.475; with Cediranib + Olaparib (first compound 0.04 µM), 0.797; with Cediranib + Olaparib (first compound 0.1265 µM), 0.836. In addition, the relative viability with Cediranib + Olaparib (first compound 0.4 µM) stood at 0.739; in the assay with Cediranib + Olaparib (first compound 1.265 µM), 0.749; with Cediranib + Olaparib (first compound 4 µM), 0.658.
As for NCI-H1915, the relative viability with Decitabine + Navitoclax (first compound 0.04 µM) came to 0.338; in the assay with Decitabine + Navitoclax (first compound 0.1265 µM), 0.253; with Decitabine + Navitoclax (first compound 0.4 µM), 0.223; with Decitabine + Navitoclax (first compound 1.265 µM), 0.184; with Decitabine + Navitoclax (first compound 4 µM), 0.188; in the assay with Decitabine + Dasatinib (first compound 0.04 µM) it was 0.253. Further, the relative viability with Decitabine + Dasatinib (first compound 0.1265 µM) stood at 0.228; with Decitabine + Dasatinib (first compound 0.4 µM) it was 0.189; in the assay with Decitabine + Dasatinib (first compound 1.265 µM) it was 0.2; in the assay with Decitabine + Dasatinib (first compound 4 µM), 0.193; in the assay with Cediranib + Pemetrexed (first compound 0.04 µM) it was 0.655; with Cediranib + Pemetrexed (first compound 0.1265 µM) it was 0.74. The relative viability in the assay with Cediranib + Pemetrexed (first compound 0.4 µM) came to 0.448; in the assay with Cediranib + Pemetrexed (first compound 1.265 µM), 0.516; in the assay with Cediranib + Pemetrexed (first compound 4 µM), 0.446; with Cediranib + Olaparib (first compound 0.04 µM) it was 0.246; with Cediranib + Olaparib (first compound 0.1265 µM), 0.251; in the assay with Cediranib + Olaparib (first compound 0.4 µM), 0.263. Further, the relative viability is 0.289 with Cediranib + Olaparib (first compound 1.265 µM) and 0.249 in the assay with Cediranib + Olaparib (first compound 4 µM).
On to IA-LM, for which the relative viability with Decitabine + Navitoclax (first compound 0.04 µM) was 0.415; with Decitabine + Navitoclax (first compound 0.1265 µM), 0.313; with Decitabine + Navitoclax (first compound 0.4 µM), 0.156; with Decitabine + Navitoclax (first compound 1.265 µM) it was 0.162; with Decitabine + Navitoclax (first compound 4 µM), 0.169; in the assay with Cediranib + Olaparib (first compound 0.04 µM) it was 0.993. Moreover, the relative viability with Cediranib + Olaparib (first compound 0.1265 µM) stood at 0.848; in the assay with Cediranib + Olaparib (first compound 0.4 µM), 0.824; in the assay with Cediranib + Olaparib (first compound 1.265 µM) it was 0.867; with Cediranib + Olaparib (first compound 4 µM), 1.02.
For the cell line NCI-H1734, the relative viability with Decitabine + Navitoclax (first compound 0.04 µM) was determined as 0.583; with Decitabine + Navitoclax (first compound 0.1265 µM), 0.57; with Decitabine + Navitoclax (first compound 0.4 µM) it was 0.424; with Decitabine + Navitoclax (first compound 1.265 µM) it was 0.268; with Decitabine + Navitoclax (first compound 4 µM), 0.246; in the assay with Decitabine + Dasatinib (first compound 0.04 µM), 0.433. Further, the relative viability is 0.378 with Decitabine + Dasatinib (first compound 0.1265 µM); 0.423 in the assay with Decitabine + Dasatinib (first compound 0.4 µM); 0.298 with Decitabine + Dasatinib (first compound 1.265 µM); 0.219 with Decitabine + Dasatinib (first compound 4 µM); 0.472 with Cediranib + Pemetrexed (first compound 0.04 µM); 0.409 with Cediranib + Pemetrexed (first compound 0.1265 µM). Further, the relative viability with Cediranib + Pemetrexed (first compound 0.4 µM) stood at 0.412; in the assay with Cediranib + Pemetrexed (first compound 1.265 µM) it was 0.425; with Cediranib + Pemetrexed (first compound 4 µM) it was 0.425; with Cediranib + Olaparib (first compound 0.04 µM), 0.683; with Cediranib + Olaparib (first compound 0.1265 µM), 0.623; with Cediranib + Olaparib (first compound 0.4 µM) it was 0.59. The relative viability with Cediranib + Olaparib (first compound 1.265 µM) was determined as 0.676; with Cediranib + Olaparib (first compound 4 µM) it was 0.764.
SK-MES-1: the relative viability with Decitabine + Navitoclax (first compound 0.04 µM) was determined as 0.976; with Decitabine + Navitoclax (first compound 0.1265 µM) it was 0.84; in the assay with Decitabine + Navitoclax (first compound 0.4 µM) it was 0.501; with Decitabine + Navitoclax (first compound 1.265 µM) it was 0.33; in the assay with Decitabine + Navitoclax (first compound 4 µM), 0.303; with Decitabine + Dasatinib (first compound 0.04 µM) it was 0.333. Besides, the relative viability in the assay with Decitabine + Dasatinib (first compound 0.1265 µM) came to 0.234; with Decitabine + Dasatinib (first compound 0.4 µM), 0.161; in the assay with Decitabine + Dasatinib (first compound 1.265 µM) it was 0.135; with Decitabine + Dasatinib (first compound 4 µM), 0.158; in the assay with Cediranib + Pemetrexed (first compound 0.04 µM), 1.02; with Cediranib + Pemetrexed (first compound 0.1265 µM), 1.01. In addition, the relative viability in the assay with Cediranib + Pemetrexed (first compound 0.4 µM) is 0.901; with Cediranib + Pemetrexed (first compound 1.265 µM), 0.964; with Cediranib + Pemetrexed (first compound 4 µM) it was 1.03; with Cediranib + Olaparib (first compound 0.04 µM), 0.728; with Cediranib + Olaparib (first compound 0.1265 µM), 0.73; with Cediranib + Olaparib (first compound 0.4 µM), 0.642. Also, the relative viability in the assay with Cediranib + Olaparib (first compound 1.265 µM) was found to be 0.685; in the assay with Cediranib + Olaparib (first compound 4 µM), 0.899.
In the case of Calu-6, the relative viability is 0.6 with Decitabine + Navitoclax (first compound 0.04 µM); 0.457 with Decitabine + Navitoclax (first compound 0.1265 µM); 0.302 with Decitabine + Navitoclax (first compound 0.4 µM); 0.277 in the assay with Decitabine + Navitoclax (first compound 1.265 µM); 0.207 in the assay with Decitabine + Navitoclax (first compound 4 µM); 0.592 in the assay with Cediranib + Olaparib (first compound 0.04 µM). In addition, the relative viability with Cediranib + Olaparib (first compound 0.1265 µM) was found to be 0.566; with Cediranib + Olaparib (first compound 0.4 µM), 0.599; with Cediranib + Olaparib (first compound 1.265 µM), 0.582; with Cediranib + Olaparib (first compound 4 µM) it was 0.56.
Regarding HCC-15, the relative viability with Decitabine + Navitoclax (first compound 0.04 µM) came to 0.654; in the assay with Decitabine + Navitoclax (first compound 0.1265 µM), 0.646; with Decitabine + Navitoclax (first compound 0.4 µM), 0.469; with Decitabine + Navitoclax (first compound 1.265 µM), 0.413; with Decitabine + Navitoclax (first compound 4 µM), 0.348; in the assay with Decitabine + Dasatinib (first compound 0.04 µM) it was 0.625. The relative viability with Decitabine + Dasatinib (first compound 0.1265 µM) turned out to be 0.581; in the assay with Decitabine + Dasatinib (first compound 0.4 µM) it was 0.408; with Decitabine + Dasatinib (first compound 1.265 µM), 0.361; with Decitabine + Dasatinib (first compound 4 µM), 0.333; in the assay with Cediranib + Pemetrexed (first compound 0.04 µM), 0.209; with Cediranib + Pemetrexed (first compound 0.1265 µM), 0.222. Also, the relative viability amounted to 0.226 with Cediranib + Pemetrexed (first compound 0.4 µM); 0.218 in the assay with Cediranib + Pemetrexed (first compound 1.265 µM); 0.22 with Cediranib + Pemetrexed (first compound 4 µM); 0.706 with Cediranib + Olaparib (first compound 0.04 µM); 0.705 with Cediranib + Olaparib (first compound 0.4 µM); 0.759 with Cediranib + Olaparib (first compound 1.265 µM). In the assay with Cediranib + Olaparib (first compound 4 µM), the relative viability was 0.759.
Regarding SK-LU-1, the relative viability in the assay with Decitabine + Navitoclax (first compound 0.04 µM) stood at 0.262; in the assay with Decitabine + Navitoclax (first compound 0.1265 µM), 0.385; with Decitabine + Navitoclax (first compound 0.4 µM), 0.23; with Decitabine + Navitoclax (first compound 1.265 µM), 0.335; with Decitabine + Navitoclax (first compound 4 µM), 0.282; in the assay with Decitabine + Dasatinib (first compound 0.04 µM), 0.188. For the same cell line, the relative viability in the assay with Decitabine + Dasatinib (first compound 0.1265 µM) is 0.166; in the assay with Decitabine + Dasatinib (first compound 0.4 µM), 0.173; with Decitabine + Dasatinib (first compound 1.265 µM), 0.154; in the assay with Decitabine + Dasatinib (first compound 4 µM), 0.185; with Cediranib + Pemetrexed (first compound 0.04 µM), 1.11; with Cediranib + Pemetrexed (first compound 0.1265 µM), 1.01. The relative viability was found to be 0.969 with Cediranib + Pemetrexed (first compound 0.4 µM); 0.956 with Cediranib + Pemetrexed (first compound 1.265 µM); 1.18 with Cediranib + Pemetrexed (first compound 4 µM); 0.617 with Cediranib + Olaparib (first compound 0.04 µM); 0.488 with Cediranib + Olaparib (first compound 0.1265 µM); 0.426 with Cediranib + Olaparib (first compound 0.4 µM). For the same cell line, the results for the relative viability in the assay with Cediranib + Olaparib (first compound 1.265 µM) and with Cediranib + Olaparib (first compound 4 µM) were 0.462 and 0.497, respectively.
